Laboratory results published in article PMC7918733, “Biological Profiling of Semisynthetic C19-Functionalized Ferruginol and Sugiol Analogues” (Antibiotics, 2021).

Key:
[1] = Cytotoxicity assay on J774 macrophages; details: mouse, Macrophages J774 CC50, 50% reduction of cell viability
Method: (§3) The compounds were additionally studied in a panel of mammalian cell lines to determine cytotoxicity.
(§4) The parasites, culture procedure and the activity of functionalized abietane analogs on Leishmania promastigotes were performed according to the method previously reported by us [28], while the intracellular amastigote assay was performed on L. amazonensis and L. infantum according to the fluorometric test [29]. The J774 cell culture and the cytotoxicity assay was carried out according to our previously described method [30].

P. falciparum 3D7 strain = assay: Antiplasmodial DNA stain-based growth assay; assay type: cell-based; details: Plasmodium falciparum, 3D7; chloroquine-sensitive strain; 72 h incubation; read-out: P. falciparum 3D7 EC50
Method: (§1) Assays were performed by using previously described DNA stain-based assay and methods, including cytotoxicity assays.

P. falciparum K1 strain = assay: Antiplasmodial DNA stain-based growth assay; assay type: cell-based; details: Plasmodium falciparum, K1; chloroquine-resistant strain; 72 h incubation; read-out: P. falciparum K1 EC50
Method: as §1

HeLa (Cervix) = assay: Antiproliferative SRB assay; assay type: cell-based; details: Homo sapiens, mean ± SD of at least two experiments
Method: (§2) Cells, cultures and the activity test of abietane analogs followed reported methods. The SRB assay was performed as previously described, and the antiproliferative activity was given as GI50 values, which were calculated according to NCI formulas.

HBL-100 (Breast) = assay: Antiproliferative SRB assay; assay type: cell-based; details: Homo sapiens, mean ± SD of at least two experiments
Method: as §2

T-47D (Breast) = assay: Antiproliferative SRB assay; assay type: cell-based; details: Homo sapiens, T47D, mean ± SD of at least two experiments
Method: as §2

A549 (Lung) = assay: Antiproliferative SRB assay; assay type: cell-based, human; details: Homo sapiens, A549, mean ± SD of at least two experiments
Method: as §2

SW1573 (Lung) = assay: Antiproliferative SRB assay; assay type: cell-based, human; details: Homo sapiens, SW1573, mean ± SD of at least two experiments
Method: as §2

WiDr (Colon) = assay: Antiproliferative SRB assay; assay type: cell-based, human; details: Homo sapiens, WiDr, mean ± SD of at least two experiments
Method: as §2

[2] = target: GABAA receptor subtype (α1β2γ2S) (Homo sapiens, UniProt P14867+P18507+P47870); assay: Two-microelectrode voltage-clamp in Xenopus laevis oocytes; details: for activation at 10 µM: read-out: IGABA Potentiation of 10 µM (%); for activation at 100 µM: read-out: IGABA Potentiation of 100 µM (%)
Method: All molecules were tested at concentrations of 10, 100 μM and compared with dehydroabietic acid (DHA) (3) as a reference [16].

HEK293 = assay: Cytotoxicity on mammalian cell lines; assay type: cell-based; details: Homo sapiens, HEK293; read-out: HEK293 EC50
Method: as §1

RAJI = assay: Cytotoxicity on mammalian cell lines; assay type: cell-based; details: Homo sapiens, read-out: RAJI EC50
Method: as §1

HepG2 = assay: Cytotoxicity on mammalian cell lines; assay type: cell-based; details: Homo sapiens, HepG2; read-out: HepG2 EC50
Method: as §1

BJ = assay: Cytotoxicity on mammalian cell lines; assay type: cell-based; details: Homo sapiens, read-out: BJ EC50
Method: as §1

in vitro = details: mouse, Macrophages J774 CC50
Method: as §3, §4

A549 cell line = test system: A549 cell line; design: method as in doi:10.1016/j.phytol.2013.04.003; details: MTT method; cited from earlier work
[3] = test system: human solid tumor cell lines HBL-100, A549, HeLa, T-47D, SW1573, WiDr; assay: Antiproliferative SRB assay, panel of six cell lines; assay type: cell-based; details: over the six solid tumor cell lines, read-out: GI50 (range over the cell lines)
Method: as §2

[4] = test system: L. guyanensis promastigotes; assay: Antileishmanial in vitro promastigote assay; details: Leishmania guyanensis, read-out: L. guyanensis IC50 ± SD
Method: as §3, §4

[5] = test system: Leishmania promastigotes (L. donovani, L. infantum, L. guyanensis, L. amazonensis); assay: Antipromastigote activity over the tested Leishmania spp.; details: read-out: antipromastigote activity IC50 values (range over species)
Method: The parasites, culture procedure and the activity of functionalized abietane analogs on Leishmania promastigotes were performed according to the method previously reported by us [28], while the intracellular amastigote assay was performed on L. amazonensis and L. infantum according to the fluorometric test [29].

[6] = test system: L. donovani promastigotes; assay: Antileishmanial in vitro promastigote assay; details: Leishmania donovani, read-out: L. donovani IC50 ± SD
Method: as §3, §4

Macrophages J774 = details: mouse
Method: as §3, §4

[7] = test system: L. infantum promastigotes; assay: Antileishmanial in vitro promastigote assay; details: Leishmania infantum, read-out: L. infantum IC50 ± SD
Method: as §3, §4

[8] = test system: L. amazonensis amastigotes; assay: Intracellular amastigote assay (fluorometric test); assay type: cell-based; details: Leishmania amazonensis, read-out: L. amazonensis IC50 ± SD
[9] = test system: L. amazonensis promastigotes; assay: Antileishmanial in vitro promastigote assay; details: Leishmania amazonensis, read-out: L. amazonensis IC50 ± SD
Method: as §3, §4

L. infantum amastigotes = assay: Intracellular amastigote assay (fluorometric test); assay type: cell-based; details: Leishmania infantum, read-out: L. infantum IC50 ± SD

Chain of GABAA receptor subtype (α1β2γ2S) (P14867 28-456): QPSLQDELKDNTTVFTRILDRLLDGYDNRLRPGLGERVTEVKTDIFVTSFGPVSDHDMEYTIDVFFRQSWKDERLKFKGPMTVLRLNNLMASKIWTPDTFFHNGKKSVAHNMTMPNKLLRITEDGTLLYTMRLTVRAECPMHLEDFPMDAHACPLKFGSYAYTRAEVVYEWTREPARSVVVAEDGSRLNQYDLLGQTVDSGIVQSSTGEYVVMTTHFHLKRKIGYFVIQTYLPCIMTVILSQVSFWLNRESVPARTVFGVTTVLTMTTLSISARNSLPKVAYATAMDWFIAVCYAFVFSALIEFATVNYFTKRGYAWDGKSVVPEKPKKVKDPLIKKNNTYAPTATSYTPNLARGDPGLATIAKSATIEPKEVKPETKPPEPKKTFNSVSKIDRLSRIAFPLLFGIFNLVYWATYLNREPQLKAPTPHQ
Chain of GABAA receptor subtype (α1β2γ2S) (P47870 26-512): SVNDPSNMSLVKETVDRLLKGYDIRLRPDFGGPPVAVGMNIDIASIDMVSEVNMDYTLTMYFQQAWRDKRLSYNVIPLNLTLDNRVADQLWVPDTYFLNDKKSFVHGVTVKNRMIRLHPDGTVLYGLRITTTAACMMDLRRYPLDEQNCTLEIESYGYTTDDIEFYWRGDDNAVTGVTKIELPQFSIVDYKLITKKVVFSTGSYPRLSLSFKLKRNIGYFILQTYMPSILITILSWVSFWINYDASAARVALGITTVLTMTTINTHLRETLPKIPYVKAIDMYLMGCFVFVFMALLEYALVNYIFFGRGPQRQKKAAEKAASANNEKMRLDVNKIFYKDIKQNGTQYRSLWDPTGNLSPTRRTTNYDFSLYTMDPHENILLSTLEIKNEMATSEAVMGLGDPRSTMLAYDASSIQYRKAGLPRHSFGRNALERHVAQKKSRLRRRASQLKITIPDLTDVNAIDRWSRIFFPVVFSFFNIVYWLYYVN
Chain of GABAA receptor subtype (α1β2γ2S) (P18507 40-467 isoform P18507-1 limits assumed): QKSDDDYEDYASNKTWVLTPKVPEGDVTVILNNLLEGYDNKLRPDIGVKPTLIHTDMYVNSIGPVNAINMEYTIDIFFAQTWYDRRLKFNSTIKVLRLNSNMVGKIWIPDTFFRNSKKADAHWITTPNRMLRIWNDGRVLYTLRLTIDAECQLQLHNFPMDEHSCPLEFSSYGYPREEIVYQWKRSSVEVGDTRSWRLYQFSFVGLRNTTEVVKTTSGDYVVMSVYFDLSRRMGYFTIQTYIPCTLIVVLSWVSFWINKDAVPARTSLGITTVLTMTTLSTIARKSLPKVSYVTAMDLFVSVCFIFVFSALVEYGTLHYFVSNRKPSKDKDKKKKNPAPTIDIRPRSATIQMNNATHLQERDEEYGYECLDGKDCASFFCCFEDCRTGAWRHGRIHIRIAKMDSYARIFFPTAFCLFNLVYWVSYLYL

Structure (SMILES) | CC50 [1] | EC50 (P. falciparum 3D7 strain) | EC50 (P. falciparum K1 strain) | GI50 (HeLa (Cervix)) | GI50 (HBL-100 (Breast)) | GI50 (T-47D (Breast)) | GI50 (A549 (Lung)) | GI50 (SW1573 (Lung)) | GI50 (WiDr (Colon)) | activation at 10 µM [2] | activation at 100 µM [2] | EC50 (HEK293) | EC50 (RAJI) | EC50 (HepG2) | EC50 (BJ) | CC50 (in vitro) | also measured
COC(=O)[C@@]1(C)CCC[C@]2(C)c3cc(O)c(C(C)C)cc3CC[C@@H]12 [Compound 12] | 65.4 ± 7 µM | 4.7 µM | 2.1 µM | 5.1 ± 1.9 µM | 11 ± 3 µM | 4.2 ± 1.3 µM | 2.3 ± 1.5 µM | 12 ± 4.1 µM | 3.7 ± 1.9 µM | 1 ± 3% | 65 ± 6% | > 25 µM | > 25 µM | > 25 µM | > 25 µM | – | –
CC(C)c1cc2c(cc1O)[C@@]1(C)CCC[C@](C)(CO)[C@@H]1CC2 [Compound 14, 19-hydroxyferruginol] | – | > 15 µM | 11.6 µM | 3.1 ± 0.9 µM | 13 ± 1.6 µM | 12 ± 1.8 µM | 1.8 ± 0.4 µM | 13 ± 1.3 µM | 13 ± 3.7 µM | 64 ± 13% | 507% | > 25 µM | > 25 µM | > 25 µM | > 25 µM | 51.9 ± 5.9 µM | IC50 (A549 cell line): 14 µM; GI50 [3]: 1.8 to 13 µM
CC(C)c1cc2c(cc1O)[C@@]1(C)CCC[C@](C)(C(=O)O)[C@@H]1CC2 [Compound 13, lambertic acid] | – | > 15 µM | > 15 µM | 29 ± 13 µM | 34 ± 4.2 µM | 41 ± 8.4 µM | 17 ± 6.1 µM | 32 ± 8.9 µM | 59 ± 7.3 µM | 3 ± 3% | 71 ± 23% | > 25 µM | > 25 µM | > 25 µM | > 25 µM | > 200 µM | IC50 [4]: 17.8 ± 1.2 µM; IC50 [5]: 12.8 to 51.5 µM; IC50 [6]: 12.8 ± 2.8 µM; CC50 (Macrophages J774): 217 ± 34 µM; fold less cytotoxic than 12-hydroxydehydroabietic acid (Macrophages J774): 2.5 fold; IC50 [7]: 29.1 ± 1.5 µM; IC50 [8]: 8.8 ± 1.6 µM; IC50 [9]: 51.5 ± 3.2 µM; IC50 (L. infantum amastigotes): 19.2 ± 3.8 µM
COC(=O)[C@@]1(C)CCC[C@]2(C)c3cc(OC(C)=O)c(C(C)C)cc3C(=O)C[C@@H]12 [Compound 11] | 45.8 ± 5.6 µM | 7.1 µM | 5.7 µM | 5.6 ± 2.9 µM | 7.4 ± 0.7 µM | 6.1 ± 1.9 µM | 3.1 ± 0.9 µM | 17 ± 7.5 µM | 5.2 ± 3.1 µM | 1 ± 3% | 75 ± 4% | > 25 µM | > 25 µM | > 25 µM | > 25 µM | – | –
